Experimental data from ChEMBL document CHEMBL3396990, “Development of 1,3-diphenyladamantane derivatives as nonsteroidal progesterone receptor antagonists” (Bioorg Med Chem, 2015).
Activity calls are given as the source filed them. The calls are words filed in the database; no cut-off is given here.

Assays:
[1] = target: T1, Progesterone receptor (Homo sapiens, UniProt P06401); experiment: Antagonist activity at PR in human T47D cells assessed as inhibition of progesterone-inducted alkaline phosphatase expression after 24 hrs by plate reader analysis; format: cell-based
T1 sequence (P06401 whole entry): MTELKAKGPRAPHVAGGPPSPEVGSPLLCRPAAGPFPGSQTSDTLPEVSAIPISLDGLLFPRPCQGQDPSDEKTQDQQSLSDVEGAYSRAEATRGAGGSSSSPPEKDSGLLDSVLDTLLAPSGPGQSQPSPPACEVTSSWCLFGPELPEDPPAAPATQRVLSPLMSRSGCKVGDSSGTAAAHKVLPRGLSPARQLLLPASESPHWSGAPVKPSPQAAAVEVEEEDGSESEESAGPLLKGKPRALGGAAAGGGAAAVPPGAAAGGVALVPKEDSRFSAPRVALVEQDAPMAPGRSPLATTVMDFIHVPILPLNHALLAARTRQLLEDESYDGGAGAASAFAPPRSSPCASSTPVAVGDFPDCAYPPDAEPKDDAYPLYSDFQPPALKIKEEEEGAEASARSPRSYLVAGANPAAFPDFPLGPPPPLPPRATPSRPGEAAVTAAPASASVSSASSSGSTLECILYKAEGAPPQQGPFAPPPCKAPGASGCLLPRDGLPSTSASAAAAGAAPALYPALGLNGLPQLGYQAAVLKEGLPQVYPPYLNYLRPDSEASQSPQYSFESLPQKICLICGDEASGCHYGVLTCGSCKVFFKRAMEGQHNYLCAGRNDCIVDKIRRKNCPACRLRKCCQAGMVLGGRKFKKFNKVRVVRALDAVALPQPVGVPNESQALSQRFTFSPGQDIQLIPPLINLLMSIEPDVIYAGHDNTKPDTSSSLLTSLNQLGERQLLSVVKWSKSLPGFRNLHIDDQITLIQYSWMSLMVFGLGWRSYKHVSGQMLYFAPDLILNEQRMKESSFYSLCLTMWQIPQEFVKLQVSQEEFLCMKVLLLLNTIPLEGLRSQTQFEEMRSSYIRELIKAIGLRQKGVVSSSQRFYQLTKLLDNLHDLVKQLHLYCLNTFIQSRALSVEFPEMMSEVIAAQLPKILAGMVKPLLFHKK

[2] = target: T2, Progesterone receptor (Homo sapiens) (UniProt P06401); experiment: Agonist activity at PR in human T47D cells assessed as induction of alkaline phosphatase expression after 24 hrs by plate reader analysis; format: cell-based
T2 sequence (whole entry): T1 sequence (P06401 whole entry)

[3] = target: T1, Progesterone receptor; experiment: Displacement of [1,2,6,7-3H]progesterone from human recombinant PR LBD after 24 hrs by liquid scintillation counting analysis

Structure (SMILES) | IC50 [1] [nM] | Activity [2] | IC50 [3] [nM]
N#Cc1ccc(C23CC4CC(C2)CC(c2ccc(NC(=O)c5ccccc5)cc2)(C4)C3)cc1 | 404 | inactive | 
COC(=O)Nc1ccc(C23CC4CC(CC(c5ccc(C#N)cc5)(C4)C2)C3)cc1 | 25 | inactive | > 10000
CC(=O)Nc1ccc(C23CC4CC(CC(c5ccc(C#N)cc5)(C4)C2)C3)cc1 | 58.4 | inactive | 
N#Cc1ccc(C23CC4CC(C2)CC(c2ccc(N(Cc5ccccc5)Cc5ccccc5)cc2)(C4)C3)cc1 | > 1000 | inactive | 
N#Cc1ccc(C23CC4CC(C2)CC(c2ccc([N+](=O)[O-])cc2)(C4)C3)cc1 | 53 | inactive | 
CCCCCC(=O)N(C)c1ccc(C23CC4CC(CC(c5ccc(C#N)cc5)(C4)C2)C3)cc1 | 125 | inactive | 
CCCCCC(=O)Nc1ccc(C23CC4CC(CC(c5ccc(C#N)cc5)(C4)C2)C3)cc1 | 174 | inactive | 
COC(=O)N(C)c1ccc(C23CC4CC(CC(c5ccc(C#N)cc5)(C4)C2)C3)cc1 | 36.2 | inactive | 
CN(c1ccc(C23CC4CC(CC(c5ccc(C#N)cc5)(C4)C2)C3)cc1)S(C)(=O)=O | 74 | inactive | 
CS(=O)(=O)Nc1ccc(C23CC4CC(CC(c5ccc(C#N)cc5)(C4)C2)C3)cc1 | 119 | inactive | 
CCN(C(C)=O)c1ccc(C23CC4CC(CC(c5ccc(C#N)cc5)(C4)C2)C3)cc1 | 39.5 | inactive | 
CN(C(=O)c1ccccc1)c1ccc(C23CC4CC(CC(c5ccc(C#N)cc5)(C4)C2)C3)cc1 | 311 | inactive | 228
N#Cc1ccc(C23CC4CC(CC(c5ccc(N)cc5)(C4)C2)C3)cc1 | 178 | inactive | 
CC(=O)N(C)c1ccc(C23CC4CC(CC(c5ccc(C#N)cc5)(C4)C2)C3)cc1 | 25.8 | inactive | 53
